Test results from patent US20120214862A1, “MODULATION OF FACTOR 7 EXPRESSION” (ISIS Pharmaceuticals, Inc., priority 2009, published 2012).
In the oligonucleotide strings, read from the 5' end, every base follows the letter of its sugar. An asterisk marks phosphorothioate; unmarked linkages are phosphodiester. Other units and linkages are bracketed, terminal groups are in braces. A string of capitals states the bases alone. e = 2'-O-(2-methoxyethyl) (MOE); [5mC] = 5-methylcytosine; d = 2'-deoxy (DNA)

Key:
[1] = test system: human Factor 7 mRNA; experiment: Antisense inhibition of human Factor 7 mRNA in HepB3 cells, lipofectin, 50 nM, real-time RT-PCR; type: cell-based; details: HepB3 cells; for % Inhibition (human Factor 7 mRNA): Example 1, 50 nM, ~24 h, relative to untreated control cells
Procedure, shortened: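 Readout is percent reduction of Factor 7 message compared with untreated cells, after correction for total RNA content quantified by RIBOGREEN®. Cultures were seeded at 4,000 cells per well and treated for about 24 hours before RNA extraction.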

[2] = test system: human Factor 7 mRNA; experiment: Dose-dependent antisense inhibition of human Factor 7 in HepB3 cells, transfection with electroporation; type: cell-based
Procedure, shortened: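 HepB3 cells, 20,000/well, electroporated with gapmers at 3.125–100 μM; about 16 h treatment. Factor 7 mRNA by qRT-PCR with primer probe set RTS 2927, normalized to RIBOGREEN total RNA; percent inhibition versus untreated cells.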

[3] = lipofectin, 50 nM antisense oligonucleotide, approximately 24 hours, primer probe set RTS 2927, relative to untreated control
[4] = 3.125 μM, 16 hours (Example 7, Table 15)
[5] = 3.125 μM, 16 hours (Example 8, Table 16)
[6] = 6.25 μM, 16 hours (Example 7, Table 15)
[7] = 6.25 μM, 16 hours (Example 8, Table 16)
[8] = 12.5 μM, 16 hours (Example 7, Table 15)
[9] = 12.5 μM, 16 hours (Example 8, Table 16)
[10] = 25 μM, 16 hours (Example 7, Table 15)
[11] = 25 μM, 16 hours (Example 8, Table 16)
[12] = 50 μM, 16 hours (Example 7, Table 15)
[13] = 50 μM, 16 hours (Example 8, Table 16)
[14] = 100 μM, 16 hours (Example 7, Table 15)
[15] = 100 μM, 16 hours (Example 8, Table 16)

Substance | % Inhibition (human Factor 7 mRNA) ([1]; lipofectin) | % Inhibition of human Factor 7 mRNA levels [1, 3] | percent inhibition of Factor 7 mRNA, relative to untreated control cells [2, 4] | percent inhibition of Factor 7 mRNA, relative to untreated control cells [2, 5] | percent inhibition of Factor 7 mRNA, relative to untreated control cells [2, 6] | percent inhibition of Factor 7 mRNA, relative to untreated control cells [2, 7] | percent inhibition of Factor 7 mRNA, relative to untreated control cells [2, 8] | percent inhibition of Factor 7 mRNA, relative to untreated control cells [2, 9] | percent inhibition of Factor 7 mRNA, relative to untreated control cells [2, 10] | percent inhibition of Factor 7 mRNA, relative to untreated control cells [2, 11] | percent inhibition of Factor 7 mRNA, relative to untreated control cells [2, 12] | percent inhibition of Factor 7 mRNA, relative to untreated control cells [2, 13] | percent inhibition of Factor 7 mRNA, relative to untreated control cells [2, 14] | percent inhibition of Factor 7 mRNA, relative to untreated control cells [2, 15] | % Inhibition of human Factor 7 mRNA levels ([1]; gapmers targeted to nucleobases 15188 to 15211 of SEQ ID NO: 1 (Table 13))
407939 (antisense eT*eG*e[5mC]*eA*eG*d[5mC]*d[5mC]*d[5mC]*dG*dG*d[5mC]*dA*d[5mC]*d[5mC]*d[5mC]*eA*eG*e[5mC]*eG*eA) [compound 407939] | 93% | 76% | 18% | 35% | 28% | 60% | 42% | 60% | 56% | 73% | 68% | 81% | 82% | 83% | 
407935 (antisense eA*eT*eG*e[5mC]*eA*dT*dG*dG*dT*dG*dA*dT*dG*d[5mC]*dT*eT*e[5mC]*eT*eG*eA) [compound 407935] | 94% | 72% | 37% | 63% | 47% | 79% | 67% | 84% | 73% | 90% | 80% | 90% | 87% | 91% | 79%
